Assay results as given in the supplement of paper PMC10307832.

Columns and labels:
Assay in all cases: relative viability (nuclei count vs DMSO), 5 days (fraction); higher = more cells survive
[1] = compound: CC1=C(N=C(N=C1N)[C@H](CC(=O)N)NC[C@@H](C(=O)N)N)C(=O)N[C@@H]([C@H](C2=CN=CN2)OC3C(C(C(C(O3)CO)O)O)OC4C(C(C(C(O4)CO)O)OC(=O)N)O)C(=O)N[C@H](C)[C@H]([C@H](C)C(=O)N[C@@H]([C@@H](C)O)C(=O)NCCC5=NC(=CS5)C6=NC(=CS6)C(=O)NCCC[S+](C)C)O [Bleomycin] + O=C(CCCCCCC(=O)Nc1ccccc1)NO [Vorinostat] (partner 1 µM); settings: main component drawn
How it was run: (§1)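 Dosing by pin tool came one day after lung cancer cell lines were seeded in 1536-well plates, using either one drug or a fixed anchor-drug dose plus five library-drug doses (not always all listed) in √10 steps. After 5 days, nuclei were counted on 4× images. Relative viability is treated-well nuclei count divided by vehicle-well nuclei count, and values are medians of duplicate plates.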

[2] = compound: COc1cc([C@@H]2c3cc4c(cc3[C@@H](O[C@@H]3O[C@@H]5CO[C@@H](C)O[C@H]5[C@H](O)[C@H]3O)[C@H]3COC(=O)[C@H]23)OCO4)cc(OC)c1O [Etoposide] + Cc1cc(Nc2cc(N3CCN(C)CC3)nc(Sc3ccc(NC(=O)C4CC4)cc3)n2)n[nH]1 [Tozasertib] (partner 0.1 µM)
How it was run: as §1

[3] = compound: COc1cc([C@@H]2c3cc4c(cc3[C@@H](O[C@@H]3O[C@@H]5CO[C@@H](C)O[C@H]5[C@H](O)[C@H]3O)[C@H]3COC(=O)[C@H]23)OCO4)cc(OC)c1O [Etoposide] + CCNC(=O)c1noc(-c2cc(C(C)C)c(O)cc2O)c1-c1ccc(CN2CCOCC2)cc1 [Luminespib] (partner 0.01 µM)
How it was run: as §1

[4] = compound: COc1cc([C@@H]2c3cc4c(cc3[C@@H](O[C@@H]3O[C@@H]5CO[C@@H](C)O[C@H]5[C@H](O)[C@H]3O)[C@H]3COC(=O)[C@H]23)OCO4)cc(OC)c1O [Etoposide] + O=C(c1cc(Cc2n[nH]c(=O)c3ccccc23)ccc1F)N1CCN(C(=O)C2CC2)CC1 [Olaparib] (partner 8 µM)
How it was run: as §1

Cell Line	relative viability ([1]; first compound 0.01 µM)	relative viability ([1]; first compound 0.03162 µM)	relative viability ([1]; first compound 0.1 µM)	relative viability ([1]; first compound 0.3162 µM)	relative viability ([1]; first compound 1 µM)	relative viability ([2]; first compound 0.01 µM)	relative viability ([2]; first compound 0.03162 µM)	relative viability ([2]; first compound 0.1 µM)	relative viability ([2]; first compound 0.3162 µM)	relative viability ([2]; first compound 1 µM)	relative viability ([3]; first compound 0.01 µM)	relative viability ([3]; first compound 0.03162 µM)	relative viability ([3]; first compound 0.1 µM)	relative viability ([3]; first compound 0.3162 µM)	relative viability ([3]; first compound 1 µM)	relative viability ([4]; first compound 0.01 µM)	relative viability ([4]; first compound 0.03162 µM)	relative viability ([4]; first compound 0.1 µM)	relative viability ([4]; first compound 0.3162 µM)	relative viability ([4]; first compound 1 µM)
NCI-H522	0.979	0.911	0.739	0.525	0.374	0.589	0.554	0.539	0.59	0.516	1.03	0.988	0.866	0.907	0.601	0.593	0.724	0.811	0.59	0.539
HCC-15	0.77	0.864	0.702	0.327	0.249	0.386	0.348	0.367	0.23	0.122	0.473	0.303	0.366	0.15	0.178	0.699	0.613	0.629	0.266	0.162
A-427	0.753	0.768	0.717	0.46	0.271	0.213	0.224	0.219	0.165	0.147	0.832	1.02	0.61	0.382	0.182	0.715	0.83	0.588	0.298	0.221
NCI-H23	0.264	0.316	0.219	0.123	0.127	0.344	0.333	0.29	0.201	0.163	0.23	0.204	0.207	0.212	0.246	0.263	0.283	0.295	0.174	0.166
NCI-H1734	0.612	0.623	0.472	0.231	0.15	0.269	0.254	0.279	0.273	0.24	0.226	0.192	0.182	0.185	0.168	0.285	0.607	0.589	0.373	0.263
NCI-H2087	0.441	0.76	0.329	0.0956	0.15	0.214	0.248	0.233	0.205	0.166	0.153	0.162	0.165	0.164	0.155	0.579	0.564	0.489	0.319	0.161
PC-3 [JPC-3]	0.788	0.928	0.737	0.46	0.417	0.841	0.882	0.928	0.853	0.707	0.67	0.717	0.549	0.581	0.371	0.992	0.928	1.14	1.07	0.794
NCI-H1915	0.377	0.383	0.291	0.162	0.116	0.438	0.459	0.473	0.353	0.308	0.714	0.634	0.808	0.617	0.394	0.261	0.268	0.309	0.213	0.194
NCI-H1666	0.786	0.926	0.885	0.652	0.613	0.551	0.592	0.485	0.356	0.372	0.949	0.906	0.77	0.399	0.406	0.702	0.642	0.758	0.529	0.497
HCC-366	0.115	0.135	0.0903	0.0328	0.0275	0.0819	0.087	0.0918	0.0736	0.0452						0.292	0.304	0.217	0.0515	0.0449
SK-MES-1	0.839	0.936	0.903	0.471	0.235	0.877	0.807	0.833	0.389	0.222	0.695	0.64	0.733	0.357	0.231	0.697	0.785	0.56	0.257	0.19
NCI-H727	1.18	1.17	1.08	0.618	0.93	0.623	0.677		0.605	0.692	0.53	0.294		0.3	0.418	0.681	0.632	0.55	0.689	0.478
RERF-LC-KJ	0.489	0.55	0.421	0.344	0.25	0.532	0.448	0.493	0.386	0.316	1.16	1.2	1.29	0.93	0.724	0.827	0.877	0.861	0.633	0.417
NCI-H1623						0.416	0.392	0.349	0.396	0.259	0.541	0.537	0.347	0.405	0.28					
Calu-6																0.585	0.547	0.505	0.274	0.202
LC-2-ad	0.62	0.609	0.466	0.236	0.2	0.39	0.441	0.327	0.339	0.285	0.899	0.833	0.711	0.34	0.305	0.349	0.692	0.771	0.412	0.274
